Data: publication PMC8306634, “Antimicrobial and Antioxidative Activity of Newly Synthesized Peptides Absorbed into Bacterial Cellulose Carrier against Acne vulgaris” (International Journal of Molecular Sciences, 2021)
≈ marks a conversion by molar mass, not a printed value. Where a SMILES comes first, the peptide text is derived from it. Side-chain parts run from the residue outwards. The star is where a group is joined. Lauroyl = CCCCCCCCCCCC(=O)*

What was measured:
S. aureus biofilm = assay: Activity against Staphylococcus aureus biofilm (MBEC, TTC); assay type: cell-based; settings: for reduction of staphylococcal biofilm: 24 h, TTC read-out 490 nm, ANOVA with Tukey's test p < 0.05
Procedure: A total of 100µL of S. aureus suspension (10^5 cfu/mL) in TSB) medium was introduced to wells of 96-well plate and incubated at 37 °C/24 h without shaking. Next, whole medium was removed, leaving biofilm-forming organisms attached to the bottom of a 96-well plate. Subsequently, geometric dilutions of peptides in TSB (62.5–250 mg/L) were applied to the wells and left for another 24 h at 37 °C. The culture with no added peptide served as a positive control for microorganism growth, while the well containing the sterile TSB only served as a sterility control for the experiment. After incubation, 5 µL of triphenyl tetrazolium chloride (TTC, Sigma Aldrich, Taufkirchern, Germany) was added to each well and incubated for 5 h at 37 °C. A change of colorless TTC to red formazan confirmed the presence of metabolically active microorganisms. Next, the formazan was dissolved in methanol and its concentration was measured using a Thermo Scientific Multiskan Go spectrometer with a wavelength of 490 nm. In parallel, biofilms in plate wells were agitated using an automated pipette, removed from 96-well plates, and spotted on a stable (M-H) agar plate (Biomaxima, Lublin, Poland) where they were incubated for 48 h. The presence of living colonies on agar indicated the lack of MBEC, while the absence of colonies in the place where spotting was performed confirmed that the particular concentration of peptide can be considered the MBEC.

S. aureus = settings: 24 h
C. acnes = settings: 24 h
[1] = DPPH radical scavenging activity; settings: absorbance at 522 nm, 25 °C, triplicate
Procedure: The DPPH spectrometric method described by Brand, Williams et al. was applied due to its efficiency on lipophilic and hydrophilic samples [60]. The evaluation of free radical scavenging capacity (FRSC) was based on DPPH (Merck, Darmstadt, Germany) absorbance intensity resulting from its reaction with surfactants. A PG Instruments UV–Vis T60 spectrophotometer (Alab, Warszawa, Poland), interfaced with a computer with a quartz cuvette and of path length 1.0 cm at 25 °C, using a total volume of 3.0 mL, was applied in the range 190–900 nm. As a sample (As) 1.0 mL of P1–P6 aqueous solution (2 mg/mL) and 2.0 mL of ethanolic DPPH solution (5.9·10–2 mg/mL) were mixed and evaluated. As a blank (Ab), 1.0 mL of water, mixed with 2.0 mL of ethanol, was used. Absorbance decrease at 522 nm was measured in 2 min intervals for 6 h. FRSC was calculated as a percentage with the following equation: FRSC (%) = [(Ab – As)/Ab] × 100%. All measurements were performed in triplicate.

S. aureus 6538 [2] = settings: for antimicrobial activity against planktonic S. aureus (in words): Figure 4, highest tested 250 mg/L; for concentration at which reduction of staphylococcal cell number was observed: planktonic S. aureus, Figure 4; for MBC: 6538, 24 h
Procedure: For experimental purposes, the American type culture collection’s strains of S. aureus 6538 and C. acnes 6919 were applied.
The following standard procedure of MBC evaluation according to CLSI (Methods for Determining Bactericidal Activity of Antimicrobial Agents; Approved Guideline, document M26A, Global Laboratory Standards for a Healthier World, https://clsi.org, accessed on 15 December 2020) was performed. The 96-well plates with bacteria and peptide concentrations were performed and incubated as it was described in Section 2 of Material and Methods. Then the M-H agar plates with spots containing staphylococcal culture were incubated at 37 °C for 24 h. Lack of colony presence in the spot after incubation was considered as lack of microorganism growth, while presence of microbial colony in the spot was considered presence of microorganism growth. All experiments were performed in triplicate.

S. aureus 6538 [3] = assay: Minimal inhibitory concentration against planktonic Staphylococcus aureus; assay type: cell-based; settings: M-H broth, 24 h/37 °C, tested 0.48-250 mg/L, turbidity 580 nm, triplicate
Procedure: A loop of staphylococcal culture grown on Columbia agar plate (BioMaxima, Poland) was transferred to liquid tryptone soya broth (TSB, BTL) and incubated at 37 °C for 24 h. Next, culture’s optical density of 1 McFarland (3 × 10^8 cfu/mL) was established using a densitometer (Biomerieux, Poland). Subsequently, the suspension was diluted in the Miller-Hinton Broth (M-H, BioMaxima, Poland) to reach the density of 1 × 10^5 cells/mL. Afterwards, serial dilutions of each peptide was performed in M-H Broth in 96-well plate (BioStar, Germany). Next 100 μL of previously-prepared microbial suspension was added to each well. The highest concentration of each peptide tested in this experimental setting was thus 250 mg/L and it dropped twice in each subsequent well of 96-well plate up to 0.48 mg/L. Plates were incubated for 24 h/37 °C in shaker (Lab Companion, JeioTech, Daejeon, Korea). After incubation, the turbidity of bacterial culture was measured using Thermo Scientific Multiskan Go spectrometer (Thermo-Fischer Scientific, Vantaa, Finland) with wavelength of 580 nm. The microbial culture where no peptide was added served as growth control. The sterility control setting was M-H broth with no microorganism added. The tetrazolium salt (TTC) test served as additional analysis of microbial cell number reduction. All experiments were performed in triplicate.

Molecule	MBEC (S. aureus biofilm; 24 h S. aureus biofilm in TSB, peptides 62.5–250 mg/L for 24 h at 37 °C, spotting on M-H agar)	reduction of staphylococcal biofilm (S. aureus biofilm; exposure to 125 mg/L)	reduction of staphylococcal biofilm (S. aureus biofilm; exposure to 250 mg/L)	Inhibition Zone (S. aureus) [mm]	Inhibition Zone (C. acnes) [mm]	DPPH radicals inhibited over six hours ([1]; peptide 2 mg/mL, six hours) [%]	antimicrobial activity against planktonic S. aureus (in words) (S. aureus 6538 [2])	concentration at which reduction of staphylococcal cell number was observed (S. aureus 6538 [2]) [mg/L]	time required for the extinction of fifty percent of the DPPH ([1]; peptide 2 mg/mL aqueous (1.0 mL) + 2.0 mL ethanolic DPPH 5.9·10–2 mg/mL) [min]	MBC (S. aureus 6538 [2]) [µg/mL]	MIC (S. aureus 6538 [3])
NCCCC[C@H](NC(=O)[C@H](Cc1c[nH]c2ccccc12)NC(=O)[C@H](CCCCN)NC(=O)[C@H](Cc1c[nH]c2ccccc12)NC(=O)[C@H](CCCCNC(=O)[C@H](CCCCN)NC(=O)[C@H](Cc1c[nH]c2ccccc12)NC(=O)[C@H](CCCCN)NC(=O)[C@@H](N)Cc1c[nH]c2ccccc12)NC(=O)[C@H](CCCCN)NC(=O)[C@H](Cc1c[nH]c2ccccc12)NC(=O)[C@H](CCCCN)NC(=O)[C@@H](N)Cc1c[nH]c2ccccc12)C(N)=O [Peptide P2, (WKWK)2-KWKWK-NH2] (H-WKWKK([Lys-Trp-Lys-Trp])WKWK-NH2)	not achieved	significant reduction	significant reduction	0	1.6 ± 0.9	–	–	–	–	–	–
CCCCCCCCCCCC(=O)NCCCC[C@H](NC(=O)CCCCCCCCCCC)C(=O)N[C@@H](CCCCN)C(=O)N[C@@H](CCCCN)C(=O)N[C@@H](CCCCN)C(N)=O [Peptide P4, (C12)2-KKKK-NH2] (Lauroyl-K(Lauroyl)KKK-NH2)	–	significant reduction	significant reduction	0	0	< 20	highest anti-staphylococcal activity	62.5	–	–	–
NCCCC[C@H](NC(=O)[C@H](Cc1c[nH]c2ccccc12)NC(=O)[C@@H](N)CCCCN)C(=O)NCCCC[C@H](NC(=O)[C@H](CCCCN)NC(=O)[C@H](Cc1c[nH]c2ccccc12)NC(=O)[C@@H](N)CCCCN)C(=O)N[C@@H](Cc1c[nH]c2ccccc12)C(=O)N[C@@H](Cc1c[nH]c2ccccc12)C(=O)N[C@@H](Cc1c[nH]c2ccccc12)C(N)=O [Peptide P5, (KWK)2-KWWW-NH2] (H-KWKK([Lys-Trp-Lys])WWW-NH2; N-terminus assumed)	–	–	significant reduction	1	2	–	–	125	124	250 (≈ 157 µM)	–
NCCCC[C@H](NC(=O)[C@@H](N)CCCCN)C(=O)NCCCC[C@H](NC(=O)[C@H](CCCCN)NC(=O)[C@@H](N)CCCCN)C(=O)N[C@@H](Cc1c[nH]c2ccccc12)C(=O)N[C@@H](Cc1c[nH]c2ccccc12)C(=O)N[C@@H](Cc1c[nH]c2ccccc12)C(N)=O [Peptide P6, (KK)2-KWWW-NH2] (H-KKK([Lys-Lys])WWW-NH2; N-terminus assumed)	–	significant reduction	significant reduction	0	0	–	–	125	–	250 (≈ 205 µM)	–
(WK)2-KWK-NH2 [Peptide P1]	–	–	–	–	–	–	lack of antimicrobial activity	–	–	–	not observed
(WR)2-KWR-NH2 [Peptide P3]	–	–	–	–	–	–	recordable antimicrobial activity, however only in the highest concentrations of 250 mg/L	–	–	–	–
